For data set [1] the following is noted: 303.15 K; 101 kPa; Liquid.
A short description of data set [2]: xn = mol fraction of the nth substance listed. The settings on record: 303.15 K, 101 kPa, Liquid.

Here are results for nine molecules from the NIST ThermoML archive (doi:10.1021/je700460w).

Numbers after ± are expanded uncertainties.

Regarding `CC(C)CC(C)(C)C` [2,2,4-trimethylpentane], the mass density in data set [1] worked out at 683.74 ± 0.43 kg/m3.

Consider `CC(C)CC(C)(C)C` [2,2,4-trimethylpentane] + CC(C)OC(C)C, for which, in data set [2] (x2 = 0), the mass density came out at 683.74 ± 0.43 kg/m3.

On to `CC(C)CC(C)(C)C` [2,2,4-trimethylpentane] + CCCO, for which the mass density is recorded as 683.74 ± 0.43 kg/m3 in data set [2] (x2 = 0); 685.75 ± 0.43 kg/m3 in data set [2] (x2 = 0.0484); 688.26 ± 0.43 kg/m3 in data set [2] (x2 = 0.0993); 694.24 ± 0.42 kg/m3 in data set [2] (x2 = 0.2038); 700.64 ± 0.42 kg/m3 in data set [2] (x2 = 0.2983); 708.63 ± 0.41 kg/m3 in data set [2] (x2 = 0.4). Also, the mass density stood at 717.82 ± 0.41 kg/m3 in data set [2] (x2 = 0.5007); 728.33 ± 0.4 kg/m3 in data set [2] (x2 = 0.5989); 741.12 ± 0.39 kg/m3 in data set [2] (x2 = 0.6995); 756.21 ± 0.38 kg/m3 in data set [2] (x2 = 0.7998); 774.29 ± 0.36 kg/m3 in data set [2] (x2 = 0.8984); 785.01 ± 0.35 kg/m3 in data set [2] (x2 = 0.9502).

Consider `CC(C)OC(C)C` [diisopropyl ether], for which, in data set [1], the mass density came to 713.51 ± 0.76 kg/m3.

In the case of `CC(C)OC(C)C` [diisopropyl ether] + CC(C)CC(C)(C)C, the mass density in data set [2] (x1 = 0.0504) turned out to be 684.87 ± 0.43 kg/m3; in data set [2] (x1 = 0.102), 686.03 ± 0.43 kg/m3; in data set [2] (x1 = 0.1985), 688.29 ± 0.43 kg/m3; in data set [2] (x1 = 0.301), 690.84 ± 0.43 kg/m3; in data set [2] (x1 = 0.3996), 693.42 ± 0.43 kg/m3; in data set [2] (x1 = 0.5002), 696.27 ± 0.42 kg/m3. Also, the mass density is recorded as 699.34 ± 0.42 kg/m3 in data set [2] (x1 = 0.6002); 702.6 ± 0.42 kg/m3 in data set [2] (x1 = 0.7009); 705.55 ± 0.41 kg/m3 in data set [2] (x1 = 0.7849); 709.78 ± 0.41 kg/m3 in data set [2] (x1 = 0.9013); 711.68 ± 0.41 kg/m3 in data set [2] (x1 = 0.9512); 713.51 ± 0.41 kg/m3 in data set [2] (x1 = 1).

On to `CC(C)OC(C)C` [diisopropyl ether] + CCCO, for which the mass density in data set [2] (x1 = 0.0504) is listed as 790.59 ± 0.61 kg/m3; in data set [2] (x1 = 0.0991), 785.96 ± 0.62 kg/m3; in data set [2] (x1 = 0.2001), 775.66 ± 0.64 kg/m3; in data set [2] (x1 = 0.2994), 766.52 ± 0.66 kg/m3; in data set [2] (x1 = 0.4), 757.67 ± 0.68 kg/m3; in data set [2] (x1 = 0.5018), 749.3 ± 0.69 kg/m3. Also, the mass density in data set [2] (x1 = 0.6006) is reported as 741.73 ± 0.71 kg/m3; in data set [2] (x1 = 0.6995) it was 734.54 ± 0.72 kg/m3; in data set [2] (x1 = 0.7994) it was 727.46 ± 0.73 kg/m3; in data set [2] (x1 = 0.8981), 720.72 ± 0.75 kg/m3; in data set [2] (x1 = 0.9498), 717.2 ± 0.75 kg/m3; in data set [2] (x1 = 1), 713.51 ± 0.76 kg/m3.

Turning to `CCCO` [propan-1-ol], the mass density in data set [1] came to 796.55 ± 0.6 kg/m3.

On to `CCCO` [propan-1-ol] + CC(C)CC(C)(C)C, for which, in data set [2] (x1 = 1), the mass density is given as 796.55 ± 0.34 kg/m3.

As for `CCCO` [propan-1-ol] + CC(C)OC(C)C, the mass density in data set [2] (x2 = 0) worked out at 796.55 ± 0.6 kg/m3.
